System: K98450-129-R-PDC multicell spheroids, viability
Assay: Anticancer human tumor K98450-129-R-PDC patient-derived colon adenocarcinoma cell line growth inhibition [PI3K]
Details: for IC50: curve of first compound; for viability, T/C: stronger effect = lower value
Procedure, shortened: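 Multi-cell spheroids combine tumor cells with HUVEC and human MSCs, treated with targeted agents alone or with inavolisib, alpelisib, duvelisib or copanlisib. Concentrations fall in half-log steps from at or near clinical Cmax, or from 10 microM where Cmax is unknown; viability read-out.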

[1] = second compound 0.0316 µM, first compound 0.0316 µM
[2] = second compound 0.0316 µM, first compound 0.1 µM
[3] = second compound 0.0316 µM, first compound 0.316 µM
[4] = second compound 0.0316 µM, first compound 1 µM
[5] = second compound 0.0316 µM, first compound 3.16 µM
[6] = second compound 0.0316 µM, first compound 10 µM
[7] = second compound 0.1 µM, first compound 0.0316 µM
[8] = second compound 0.1 µM, first compound 0.1 µM
[9] = second compound 0.1 µM, first compound 0.316 µM
[10] = second compound 0.1 µM, first compound 1 µM
[11] = second compound 0.1 µM, first compound 3.16 µM
[12] = second compound 0.1 µM, first compound 10 µM
[13] = second compound 0.316 µM, first compound 0.0316 µM
[14] = second compound 0.316 µM, first compound 0.1 µM
[15] = second compound 0.316 µM, first compound 0.316 µM
[16] = second compound 0.316 µM, first compound 1 µM
[17] = second compound 0.316 µM, first compound 3.16 µM
[18] = second compound 0.316 µM, first compound 10 µM
[19] = second compound 1 µM, first compound 0.0316 µM
[20] = second compound 1 µM, first compound 0.1 µM
[21] = second compound 1 µM, first compound 0.316 µM
[22] = second compound 1 µM, first compound 1 µM
[23] = second compound 1 µM, first compound 3.16 µM
[24] = second compound 1 µM, first compound 10 µM
[25] = second compound 3.16 µM, first compound 0.0316 µM
[26] = second compound 3.16 µM, first compound 0.1 µM
[27] = second compound 3.16 µM, first compound 0.316 µM
[28] = second compound 3.16 µM, first compound 1 µM
[29] = second compound 3.16 µM, first compound 3.16 µM
[30] = second compound 3.16 µM, first compound 10 µM
[31] = second compound 10 µM, first compound 0.0316 µM
[32] = second compound 10 µM, first compound 0.1 µM
[33] = second compound 10 µM, first compound 0.316 µM
[34] = second compound 10 µM, first compound 1 µM
[35] = second compound 10 µM, first compound 3.16 µM
[36] = second compound 10 µM, first compound 10 µM
[37] = second compound 0.00316 µM, first compound 0.0316 µM
[38] = second compound 0.00316 µM, first compound 0.1 µM
[39] = second compound 0.01 µM, first compound 0.0316 µM
[40] = second compound 0.01 µM, first compound 0.1 µM
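Further: spheroids exposed to agents for seven days before read-out.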

`Cn1ncc(Cl)c1-c1cc(C(=O)NC(CN)Cc2cccc(F)c2)sc1Cl` (stereo not drawn) + Cc1nc(NC(=O)N2CCCC2C(N)=O)sc1-c1ccnc(C(C)(C)C(F)(F)F)c1 gave an IC50 (second compound 0.0316 µM) greater than 10 µM, an IC50 (second compound 0.1 µM) greater than 10 µM and an IC50 (second compound 0.316 µM) greater than 10 µM. It also gave an IC50 (second compound 1 µM) greater than 10 µM, an IC50 (second compound 3.16 µM) greater than 10 µM and an IC50 (second compound 10 µM) greater than 10 µM. The viability, T/C [1] was 97.8%, the viability, T/C [2] was 95% and the viability, T/C [3] was 109%. It also gave a viability, T/C [4] of 93.1%, a viability, T/C [5] of 88.9% and a viability, T/C [6] of 74.3%. The viability, T/C [7] was 109%, the viability, T/C [8] was 99.4% and the viability, T/C [9] was 99.7%. The viability, T/C [10] was 90.8%, the viability, T/C [11] was 89.2% and the viability, T/C [12] was 78.3%. The viability, T/C [13] was 101%, the viability, T/C [14] was 93.1% and the viability, T/C [15] was 91.9%. It also gave a viability, T/C [16] of 92.1%, a viability, T/C [17] of 91.3% and a viability, T/C [18] of 76.9%. The viability, T/C [19] was 94%, the viability, T/C [20] was 91% and the viability, T/C [21] was 97.1%. It also gave a viability, T/C [22] of 89.6%, a viability, T/C [23] of 91.7% and a viability, T/C [24] of 72.9%. It also gave a viability, T/C [25] of 82.9%, a viability, T/C [26] of 85.1% and a viability, T/C [27] of 86.8%. For the same compound, the viability, T/C [28] was 80.4%, the viability, T/C [29] was 86.2% and the viability, T/C [30] was 63.8%. It also gave a viability, T/C [31] of 66.9%, a viability, T/C [32] of 69.6% and a viability, T/C [33] of 74.1%. It also gave a viability, T/C [34] of 72.5%, a viability, T/C [35] of 78.5% and a viability, T/C [36] of 52.2%.

For `CCCS(=O)(=O)Nc1ccc(F)c(C(=O)c2c[nH]c3ncc(-c4ccc(Cl)cc4)cc23)c1F` + Cc1nc(NC(=O)N2CCCC2C(N)=O)sc1-c1ccnc(C(C)(C)C(F)(F)F)c1, the IC50 (second compound 0.0316 µM) was 6.04 µM, the IC50 (second compound 0.1 µM) was 6 µM and the IC50 (second compound 0.316 µM) was 5.81 µM. For the same compound, the IC50 (second compound 1 µM) was 5.69 µM, the IC50 (second compound 3.16 µM) was 5.33 µM and the IC50 (second compound 10 µM) was 4.79 µM. For the same compound, the viability, T/C [1] was 106%, the viability, T/C [2] was 98.7% and the viability, T/C [3] was 101%. For the same compound, the viability, T/C [4] was 101%, the viability, T/C [5] was 124% and the viability, T/C [6] was 6.29%. For the same compound, the viability, T/C [7] was 108%, the viability, T/C [8] was 96.9% and the viability, T/C [9] was 105%. For the same compound, the viability, T/C [10] was 103%, the viability, T/C [11] was 118% and the viability, T/C [12] was 5.28%. For the same compound, the viability, T/C [13] was 95.8%, the viability, T/C [14] was 95.8% and the viability, T/C [15] was 94.1%. The viability, T/C [16] was 92.8%, the viability, T/C [17] was 120% and the viability, T/C [18] was 5.66%. The viability, T/C [19] was 89.2%, the viability, T/C [20] was 90.9% and the viability, T/C [21] was 94.3%. The viability, T/C [22] was 92.9%, the viability, T/C [23] was 107% and the viability, T/C [24] was 6.99%. For the same compound, the viability, T/C [25] was 84%, the viability, T/C [26] was 85.8% and the viability, T/C [27] was 84.5%. The viability, T/C [28] was 89%, the viability, T/C [29] was 88.8% and the viability, T/C [30] was 6.1%. For the same compound, the viability, T/C [31] was 70.5%, the viability, T/C [32] was 72.8% and the viability, T/C [33] was 78%. For the same compound, the viability, T/C [34] was 71.1%, the viability, T/C [35] was 76.9% and the viability, T/C [36] was 7.67%.

`CC(=O)c1c(C)c2cnc(Nc3ccc(N4CCNCC4)cn3)nc2n(C2CCCC2)c1=O` + CC(Nc1ccc2c(c1)OCCn1cc(N3C(=O)OCC3C(F)F)nc1-2)C(N)=O showed an IC50 (second compound 0.00316 µM) greater than 0.1 µM, an IC50 (second compound 0.01 µM) greater than 0.1 µM and an IC50 (second compound 0.0316 µM) greater than 0.1 µM. The IC50 (second compound 0.1 µM) was greater than 0.1 µM, the IC50 (second compound 0.316 µM) was greater than 0.1 µM and the IC50 (second compound 1 µM) was greater than 0.1 µM. It also gave a viability, T/C (second compound 0.00316 µM, first compound 0.000316 µM) of 113%, a viability, T/C (second compound 0.00316 µM, first compound 0.001 µM) of 103% and a viability, T/C (second compound 0.00316 µM, first compound 0.00316 µM) of 105%. It also gave a viability, T/C (second compound 0.00316 µM, first compound 0.01 µM) of 97.2%, a viability, T/C [37] of 99.9% and a viability, T/C [38] of 95.7%. For the same compound, the viability, T/C (second compound 0.01 µM, first compound 0.000316 µM) was 109%, the viability, T/C (second compound 0.01 µM, first compound 0.001 µM) was 101% and the viability, T/C (second compound 0.01 µM, first compound 0.00316 µM) was 104%. For the same compound, the viability, T/C (second compound 0.01 µM, first compound 0.01 µM) was 91.2%, the viability, T/C [39] was 103% and the viability, T/C [40] was 92.8%. It also gave a viability, T/C (second compound 0.0316 µM, first compound 0.000316 µM) of 111%, a viability, T/C (second compound 0.0316 µM, first compound 0.001 µM) of 95.7% and a viability, T/C (second compound 0.0316 µM, first compound 0.00316 µM) of 103%. The viability, T/C (second compound 0.0316 µM, first compound 0.01 µM) was 94.9%, the viability, T/C [1] was 100% and the viability, T/C [2] was 95.6%. For the same compound, the viability, T/C (second compound 0.1 µM, first compound 0.000316 µM) was 97.7%, the viability, T/C (second compound 0.1 µM, first compound 0.001 µM) was 100% and the viability, T/C (second compound 0.1 µM, first compound 0.00316 µM) was 92.7%. It also gave a viability, T/C (second compound 0.1 µM, first compound 0.01 µM) of 94.8%, a viability, T/C [7] of 99.1% and a viability, T/C [8] of 103%. The viability, T/C (second compound 0.316 µM, first compound 0.000316 µM) was 94.3%, the viability, T/C (second compound 0.316 µM, first compound 0.001 µM) was 96.5% and the viability, T/C (second compound 0.316 µM, first compound 0.00316 µM) was 100%. For the same compound, the viability, T/C (second compound 0.316 µM, first compound 0.01 µM) was 93.3%, the viability, T/C [13] was 103% and the viability, T/C [14] was 91.4%. For the same compound, the viability, T/C (second compound 1 µM, first compound 0.000316 µM) was 89%, the viability, T/C (second compound 1 µM, first compound 0.001 µM) was 95.8% and the viability, T/C (second compound 1 µM, first compound 0.00316 µM) was 94.1%. It also gave a viability, T/C (second compound 1 µM, first compound 0.01 µM) of 95.2%, a viability, T/C [19] of 96.1% and a viability, T/C [20] of 82%.

Work on `Cn1nccc1Nc1nccc(-c2ccn(C(CO)c3ccc(Cl)c(F)c3)c(=O)c2)n1` (stereo not drawn) + COc1c(OCCCN2CCOCC2)ccc2c3n(c(=NC(=O)c4cnc(N)nc4)nc12)CCN3 yielded an IC50 (second compound 0.00316 µM) greater than 10 µM, an IC50 (second compound 0.01 µM) greater than 10 µM and an IC50 (second compound 0.0316 µM) greater than 10 µM. It also gave an IC50 (second compound 0.1 µM) of 7.85 µM, an IC50 (second compound 0.316 µM) of 8.33 µM and an IC50 (second compound 1 µM) of 0.272 µM. For the same compound, the viability, T/C [37] was 101%, the viability, T/C [38] was 97.7% and the viability, T/C (second compound 0.00316 µM, first compound 0.316 µM) was 89.3%. For the same compound, the viability, T/C (second compound 0.00316 µM, first compound 1 µM) was 88.5%, the viability, T/C (second compound 0.00316 µM, first compound 3.16 µM) was 93.6% and the viability, T/C (second compound 0.00316 µM, first compound 10 µM) was 69.2%. For the same compound, the viability, T/C [39] was 99.1%, the viability, T/C [40] was 82% and the viability, T/C (second compound 0.01 µM, first compound 0.316 µM) was 79.7%. For the same compound, the viability, T/C (second compound 0.01 µM, first compound 1 µM) was 79.9%, the viability, T/C (second compound 0.01 µM, first compound 3.16 µM) was 77.4% and the viability, T/C (second compound 0.01 µM, first compound 10 µM) was 95.5%. It also gave a viability, T/C [1] of 80.7%, a viability, T/C [2] of 88.6% and a viability, T/C [3] of 74.8%. For the same compound, the viability, T/C [4] was 94.6%, the viability, T/C [5] was 77.3% and the viability, T/C [6] was 63.1%. The viability, T/C [7] was 65.6%, the viability, T/C [8] was 74.8% and the viability, T/C [9] was 73.3%. For the same compound, the viability, T/C [10] was 75.3%, the viability, T/C [11] was 70.2% and the viability, T/C [12] was 44.5%. It also gave a viability, T/C [13] of 63.2%, a viability, T/C [14] of 53.7% and a viability, T/C [15] of 55.6%. The viability, T/C [16] was 61.9%, the viability, T/C [17] was 59.7% and the viability, T/C [18] was 40.8%. The viability, T/C [19] was 54.7%, the viability, T/C [20] was 61.5% and the viability, T/C [21] was 43.2%. It also gave a viability, T/C [22] of 43.9%, a viability, T/C [23] of 33.4% and a viability, T/C [24] of 20.9%.

From PubChem BioAssay AID1963961 (Molecular Pharmacology Branch, DTP, NCI, 2024)
